Assay results: ChEMBL document CHEMBL2203120, “Contribution to investigation of antimicrobial activity of styrylquinolines” (Bioorg Med Chem, 2012)
Converted amounts (≈) assume the structure as drawn. Where a SMILES comes first, the peptide text is derived from it. Bridges are numbered along the chain shown (N, C = ends). [ ]: non-standard residue; d: D form. The star is where a group is joined. Ileψ(thiazoline)Cys = CC[C@H](C)[C@H](N)C1=N[C@H](C(=O)*)CS1; dOrn = NCCC[C@@H](N)C(=O)O

Legend:
[1] = tested on: Staphylococcus aureus; assay: Antimicrobial activity against methicillin-resistant Staphylococcus aureus H 5996/08 after 24 hrs by broth microdilution method; format: functional; conditions: H 5996/08, 24 h
[2] = tested on: Staphylococcus epidermidis; assay: Antimicrobial activity against Staphylococcus epidermidis H 6966/08 after 48 hrs by broth microdilution method; format: functional; conditions: H 6966/08, 48 h
[3] = tested on: Candida tropicalis; assay: Antimicrobial activity against Candida tropicalis 156 after 48 hrs by broth microdilution test; format: functional; conditions: Candida tropicalis, 156, 48 h
[4] = tested on: Candida albicans; assay: Antimicrobial activity against Candida albicans ATCC 44859 after 48 hrs by broth microdilution test; format: functional; conditions: ATCC 44859, 48 h
[5] = Lipophilicity, log P of compound by RP-HPLC analysis; format: physicochemical
[6] = tested on: Pichia kudriavzevii; assay: Antimicrobial activity against Candida krusei ATCC 6258 after 48 hrs by broth microdilution test; format: functional; conditions: ATCC 6258, 48 h
[7] = tested on: Staphylococcus aureus; assay: Antimicrobial activity against Staphylococcus aureus CCM 4516/08 after 24 hrs by broth microdilution method; format: functional; conditions: CCM 4516/08, 24 h
[8] = tested on: Staphylococcus epidermidis; assay: Antimicrobial activity against Staphylococcus epidermidis H 6966/08 after 24 hrs by broth microdilution method; format: functional; conditions: H 6966/08, 24 h
[9] = tested on: Nakaseomyces glabratus; assay: Antimicrobial activity against Candida glabrata 20/I after 48 hrs by broth microdilution test; format: functional
[10] = tested on: Trichosporon beigelii; assay: Antimicrobial activity against Trichosporon beigelii 1188 after 48 hrs by broth microdilution test; format: functional; conditions: Trichosporon beigelii, 1188, 48 h
[11] = tested on: Staphylococcus aureus; assay: Antimicrobial activity against Staphylococcus aureus CCM 4516/08 after 48 hrs by broth microdilution method; format: functional; conditions: CCM 4516/08, 48 h
[12] = tested on: Staphylococcus aureus; assay: Antimicrobial activity against methicillin-resistant Staphylococcus aureus H 5996/08 after 48 hrs by broth microdilution method; format: functional; conditions: H 5996/08, 48 h
[13] = tested on: Candida albicans; assay: Antimicrobial activity against Candida albicans ATCC 44859 after 24 hrs by broth microdilution test; format: functional; conditions: ATCC 44859, 24 h
[14] = tested on: Candida tropicalis; assay: Antimicrobial activity against Candida tropicalis 156 after 24 hrs by broth microdilution test; format: functional; conditions: Candida tropicalis, 156, 24 h
[15] = tested on: Pichia kudriavzevii; assay: Antimicrobial activity against Candida krusei ATCC 6258 after 24 hrs by broth microdilution test; format: functional; conditions: ATCC 6258, 24 h
[16] = tested on: Nakaseomyces glabratus; assay: Antimicrobial activity against Candida glabrata 20/I after 24 hrs by broth microdilution test; format: functional
[17] = tested on: Trichosporon beigelii; assay: Antimicrobial activity against Trichosporon beigelii 1188 after 24 hrs by broth microdilution test; format: functional; conditions: Trichosporon beigelii, 1188, 24 h
[18] = tested on: Trichophyton mentagrophytes; assay: Antimicrobial activity against Trichophyton mentagrophytes 445 after 72 hrs by broth microdilution test; format: functional; conditions: Trichophyton mentagrophytes, 445, 72 h
[19] = tested on: Trichophyton mentagrophytes; assay: Antimicrobial activity against Trichophyton mentagrophytes 445 after 120 hrs by broth microdilution test; format: functional; conditions: Trichophyton mentagrophytes, 445, 120 h
[20] = tested on: Aspergillus fumigatus; assay: Antimicrobial activity against Aspergillus fumigatus 231 after 24 hrs by broth microdilution test; format: functional; conditions: Aspergillus fumigatus, 231, 24 h
[21] = tested on: Lichtheimia corymbifera; assay: Antimicrobial activity against Absidia corymbifera 272 after 24 hrs by broth microdilution test; format: functional; conditions: Lichtheimia corymbifera, 272, 24 h
[22] = tested on: Lichtheimia corymbifera; assay: Antimicrobial activity against Absidia corymbifera 272 after 48 hrs by broth microdilution test; format: functional; conditions: Lichtheimia corymbifera, 272, 48 h
[23] = tested on: Aspergillus fumigatus; assay: Antimicrobial activity against Aspergillus fumigatus 231 after 48 hrs by broth microdilution test; format: functional; conditions: Aspergillus fumigatus, 231, 48 h

| Structure (SMILES) | MIC90 [1] [µM] | MIC90 [2] [µM] | MIC80 [3] [µM] | MIC80 [4] [µM] | logP [5] | MIC80 [6] [µM] | MIC90 [7] [µM] | MIC90 [8] [µM] | MIC80 [9] [µM] | MIC80 [10] [µM] | MIC90 [11] [µM] | MIC90 [12] [µM] | MIC80 [13] [µM] | MIC80 [14] [µM] | MIC80 [15] [µM] | MIC80 [16] [µM] | MIC80 [17] [µM] | MIC50 [20] [µM] | also measured |
| --- | --- | --- | --- | --- | --- | --- | --- | --- | --- | --- | --- | --- | --- | --- | --- | --- | --- | --- | --- |
| Oc1ccc(/C=C/c2ccc3c(Cl)cc(Cl)c(O)c3n2)cc1 | 31.2 (≈ 10.4 µg/mL) | 62.5 (≈ 20.8 µg/mL) | > 125 | > 125 | 5.07 | > 125 | 7.81 (≈ 2.59 µg/mL) | 62.5 (≈ 20.8 µg/mL) | > 125 | > 125 | 15.6 (≈ 5.19 µg/mL) | 31.2 (≈ 10.4 µg/mL) |  |  |  |  |  |  |  |
| Oc1ccc(/C=C/c2ccc3c(Cl)cc(Cl)c(O)c3n2)c(O)c1 | 31.2 (≈ 10.9 µg/mL) | 31.2 (≈ 10.9 µg/mL) |  |  | 4.68 |  | 15.6 (≈ 5.44 µg/mL) | 15.6 (≈ 5.44 µg/mL) |  |  | 62.5 (≈ 21.8 µg/mL) | 62.5 (≈ 21.8 µg/mL) |  |  |  |  |  |  |  |
| Oc1cc(O)cc(/C=C/c2ccc3c(Cl)cc(Cl)c(O)c3n2)c1 | 125 (≈ 43.5 µg/mL) | 125 (≈ 43.5 µg/mL) | > 125 | > 125 | 4.68 | > 125 | 125 (≈ 43.5 µg/mL) | 31.2 (≈ 10.9 µg/mL) | > 125 | > 125 | 125 (≈ 43.5 µg/mL) | 125 (≈ 43.5 µg/mL) | > 125 | > 125 | > 125 | > 125 | > 125 |  |  |
| CCOc1ccccc1/C=C/c1ccc2c(Cl)cc(Cl)c(O)c2n1 | 3.9 (≈ 1.4 µg/mL) | 7.81 (≈ 2.81 µg/mL) | 0.98 (≈ 0.353 µg/mL) | 0.98 (≈ 0.353 µg/mL) | 5.67 | 3.9 (≈ 1.4 µg/mL) | 3.9 (≈ 1.4 µg/mL) | 3.9 (≈ 1.4 µg/mL) | 1.95 (≈ 0.702 µg/mL) | 1.95 (≈ 0.702 µg/mL) | 7.81 (≈ 2.81 µg/mL) | 7.81 (≈ 2.81 µg/mL) | 0.49 (≈ 0.177 µg/mL) | 0.98 (≈ 0.353 µg/mL) | 0.98 (≈ 0.353 µg/mL) | 0.98 (≈ 0.353 µg/mL) | 0.49 (≈ 0.177 µg/mL) | 3.9 (≈ 1.4 µg/mL) | MIC50 [18]: 1.39 µM (≈ 0.501 µg/mL); MIC50 [19]: 1.52 µM (≈ 0.548 µg/mL); MIC50 [21]: 15.6 µM (≈ 5.63 µg/mL); MIC50 [22]: 15.6 µM (≈ 5.63 µg/mL); MIC50 [23]: 3.9 µM (≈ 1.4 µg/mL) |
| CCOc1ccc(/C=C/c2ccc3c(Cl)cc(Cl)c(O)c3n2)cc1 | 125 (≈ 45 µg/mL) | 125 (≈ 45 µg/mL) | 125 (≈ 45 µg/mL) | 125 (≈ 45 µg/mL) | 5.67 | 125 (≈ 45 µg/mL) | 125 (≈ 45 µg/mL) | 125 (≈ 45 µg/mL) | > 125 | 125 (≈ 45 µg/mL) | 125 (≈ 45 µg/mL) | 125 (≈ 45 µg/mL) | 125 (≈ 45 µg/mL) | 125 (≈ 45 µg/mL) | 125 (≈ 45 µg/mL) | > 125 | 125 (≈ 45 µg/mL) | > 125 | MIC50 [18]: 125 µM (≈ 45 µg/mL); MIC50 [19]: 125 µM (≈ 45 µg/mL); MIC50 [21]: > 125 µM; MIC50 [22]: > 125 µM; MIC50 [23]: > 125 µM |
| Oc1c(Cl)cc(Cl)c2ccc(/C=C/c3ccc(/C=C/c4ccc5c(Cl)cc(Cl)c(O)c5n4)cc3)nc12 | 62.5 (≈ 34.6 µg/mL) | 125 (≈ 69.3 µg/mL) |  | 3.9 (≈ 2.16 µg/mL) | 8.88 |  | 62.5 (≈ 34.6 µg/mL) | 62.5 (≈ 34.6 µg/mL) |  |  | 125 (≈ 69.3 µg/mL) | 125 (≈ 69.3 µg/mL) | 0.98 (≈ 0.543 µg/mL) |  | 0.98 (≈ 0.543 µg/mL) | 0.49 (≈ 0.272 µg/mL) | 3.9 (≈ 2.16 µg/mL) | 3.9 (≈ 2.16 µg/mL) | MIC50 [18]: 3.9 µM (≈ 2.16 µg/mL) |
| Oc1ccc(/C=C/c2ccc3c(Cl)cc(Cl)c(O)c3n2)cc1O | 31.2 (≈ 10.9 µg/mL) | 31.2 (≈ 10.9 µg/mL) |  |  | 4.68 |  | 62.5 (≈ 21.8 µg/mL) | 15.6 (≈ 5.44 µg/mL) |  |  | 62.5 (≈ 21.8 µg/mL) | 62.5 (≈ 21.8 µg/mL) |  |  |  |  |  |  |  |
| CC[C@H](C)[C@H](N)C1=N[C@H](C(=O)N[C@@H](CC(C)C)C(=O)N[C@H](CCC(=O)O)C(=O)N[C@H](C(=O)N[C@H]2CCCCNC(=O)[C@H](CC(N)=O)NC(=O)[C@@H](CC(=O)O)NC(=O)[C@H](Cc3cnc[nH]3)NC(=O)[C@@H](Cc3ccccc3)NC(=O)[C@H]([C@@H](C)CC)NC(=O)[C@@H](CCCN)NC2=O)[C@@H](C)CC)CS1 [BACITRACIN] ({Ileψ(thiazoline)Cys}-L[dE]IK[dOrn]I[dF]H[dD]N; lactam 4-C) | 15.6 (≈ 22.2 µg/mL) | 31.6 (≈ 45 µg/mL) |  |  |  |  | 15.6 (≈ 22.2 µg/mL) | 15.6 (≈ 22.2 µg/mL) |  |  | 31.2 (≈ 44.5 µg/mL) | 31.6 (≈ 45 µg/mL) |  |  |  |  |  |  |  |
| O=C(O)c1cn(C2CC2)c2cc(N3CCNCC3)c(F)cc2c1=O [CIPROFLOXACIN] | 500 (≈ 166 µg/mL) | 250 (≈ 82.8 µg/mL) |  |  |  |  | 0.98 (≈ 0.325 µg/mL) | 250 (≈ 82.8 µg/mL) |  |  | 0.98 (≈ 0.325 µg/mL) | 500 (≈ 166 µg/mL) |  |  |  |  |  |  |  |
| OC(Cn1cncn1)(Cn1cncn1)c1ccc(F)cc1F [FLUCONAZOLE] |  |  | > 125 | 0.12 (≈ 0.0368 µg/mL) |  |  |  |  |  | 0.48 (≈ 0.147 µg/mL) |  |  | 0.06 (≈ 0.0184 µg/mL) | 0.12 (≈ 0.0368 µg/mL) |  | 0.98 (≈ 0.3 µg/mL) | 0.24 (≈ 0.0735 µg/mL) | > 125 | MIC50 [21]: > 125 µM; MIC50 [22]: > 125 µM; MIC50 [23]: > 125 µM |
| CC1(C)S[C@@H]2[C@H](NC(=O)COc3ccccc3)C(=O)N2[C@H]1C(=O)O [PENICILLIN V] | 125 (≈ 43.8 µg/mL) | 125 (≈ 43.8 µg/mL) |  |  |  |  | 0.24 (≈ 0.0841 µg/mL) | 31.2 (≈ 10.9 µg/mL) |  |  | 0.24 (≈ 0.0841 µg/mL) | 125 (≈ 43.8 µg/mL) |  |  |  |  |  |  |  |
